Reference: article PMC9785280, “Synthesis, Antiproliferative Evaluation and QSAR Analysis of Novel Halogen- and Amidino-Substituted Benzothiazoles and Benzimidazoles” (International Journal of Molecular Sciences, 2022)

What was measured:
[1] = tested on: human fibroblasts (BJ); assay: MTT antiproliferative assay, normal BJ fibroblasts; format: cell-based; conditions: Homo sapiens, Fibroblast, 72 h, MTT, mean ± SD of three independent experiments; normal cells
Description: (§1) The growth inhibition activity was assessed according to the slightly modified procedure performed at the National Cancer Institute, Developmental Therapeutics Program.
(§2) Examined compounds were dissolved in DMSO (1 × 10^−2 M). The experiments were carried out on seven human tumor cell lines and two normal cell lines. The following cell lines were used: HeLa (human cervical adenocarcinoma; purchased from ATCC), CaCo-2 (human colorectal adenocarcinoma), HuT78 (T-cell lymphoma), THP-1 (acute monocytic leukemia), SW620 (colorectal adenocarcinoma, metastatic), MDA-MB-231 (human breast adenocarcinoma), HL60 (promyelocytic leukemia cell line), foreskin fibroblast cells (BJ) and MDCK1 (Madine–Darby canine kidney fibroblast like cells). MDCK1 cells were used between 24 and 26 passages.
(§3) Adherent cells were cultured in the Dulbecco’s modified Eagle medium—DMEM (Gibco, EU) supplemented with 10 % heat-inactivated fetal bovine serum (FBS, Gibco, EU), 2 mM glutamine, and 100 U/0.1 mg penicillin/streptomycin. Cells on suspension were cultured in RPMI 1640 (Gibco, EU) medium supplemented with 10 % FBS (Gibco, EU), 2 mM glutamine, 1 mM sodium pyruvate, 10 mM HEPES. Cells were grown in humidified atmosphere under the conditions of 37 °C/5% of CO2 gas in the CO2 incubator (IGO 150 CELLlife^TM, JOUAN, Thermo Fisher Scientific, Waltham, MA, USA). A erythrosin B (Sigma-Aldrich, St. Louis, MO, USA) dye exclusion method was used to assess cell viability before plating.
(§4) Adherent cells (HeLa, CaCo-2, MCF-7 and MDCK-1) were plated in 96-well flat bottom plates (Greiner, Frickenhausen, Austria) at a concentration of 2 × 10^4 cells/mL. Suspension cells (THP-1 and HuT78) were plated in 96-well microtiter plates (Sarstead, Newton, USA) at a concentration of 1 × 10^5 cells/mL. Twenty-four hours later, cells were treated with test agents in […] 10-fold dilutions ([…] to 10^−4 M) and incubated for further 72 h. Working dilutions were freshly prepared on the day of testing. The solvent was also tested for eventual inhibitory activity by adjusting its concentration to be the same as in working concentrations. After 72 h of incubation, the cell growth rate was evaluated by performing the MTT assay, which detects dehydrogenase activity in viable cells. For this purpose, upon completion of the incubation period, growth medium was discarded and 50 μL of MTT was added to each well at a concentration of 5 mg/mL. After four hours of incubation at 37 °C, water insoluble MTT-formazan crystals were dissolved in 150 μL of dimethyl-sulfoxide (DMSO) for adherent cells, and in 10 % SDS with 0.01 M/L HCl for cells grown in suspension. The absorbance (OD, optical density) was measured on a microplate reader (iMark, BIO RAD, Hercules, CA, USA) at 595 nm.
(§5) Percent of life cells was calculated as follows: % = OD (sample)–OD (background)/OD (control)–OD (background) × 100.
(§6) Optical density (OD) of background for adherent cells is the OD of MTT solution and DMSO; OD (background) for suspension cells is OD of the culture medium with MTT and 10% SDS with 0.01 M/L HCl; OD (control) is the OD of the cells growth without tested compounds.
(§7) Calculation of GI50 value curves and QC analysis is performed by using the Excel tools and GraphPadPrism software (La Jolla, CA), v. 5.03. Briefly, individual concentration effect curves are generated by plotting the logarithm of the concentration of tested compounds(X) vs. corresponding percent inhibition values (Y) using least squares fit. The best fit GI50 values are calculated using Log (inhibitor) versus normalized response—Variable slope equation, where Y Ľ 100/(1 ţ 10 ((LogIC50 _ X) * HillSlope)). QC criteria parameters (Z0, S:B, R2, HillSlope) were checked for every GI50 curve.

[2] = tested on: MDCK1 (Madin–Darby canine kidney) cells; assay: MTT antiproliferative assay, non-tumor MDCK1 cells; format: cell-based; conditions: Canis lupus familiaris, MDCK1, 72 h, mean ± SD of three independent experiments, normal cells
Description: as §1, §2, §3, §4, §5, §6, §7

[3] = tested on: CaCo-2 (colon adenocarcinoma) cells; assay: MTT antiproliferative assay, CaCo-2; format: cell-based, human; conditions: for IC50: Homo sapiens, Caco-2, 72 h, MTT, mean ± SD of three independent experiments; for SI (BJ) CaCo-2: SI = IC50 BJ / IC50 CaCo-2
Description: as §1, §2, §3, §4, §5, §6
as §7, with “The best fit GI50 values are calculated using Log (inhibitor) versus normalized response—Variable slope equation, where Y Ľ 100/(1 ţ 10 ((LogIC50 _ X) * HillSlope)).” left out

[4] = tested on: HuT78 (T-cell lymphoma) cells; assay: MTT antiproliferative assay, HuT78; format: cell-based, human; conditions: for IC50: Homo sapiens, HuT78, 72 h, 72 h, MTT, mean ± SD of three independent experiments; for SI (BJ) HuT78: SI = IC50 BJ / IC50 HuT78; for SI (MDCK) HuT78: SI = IC50 MDCK1 / IC50 HuT78
Description: as §1, §2, §3, §4, §5, §6, §7

[5] = tested on: HeLa (cervical adenocarcinoma) cells; assay: MTT antiproliferative assay, HeLa; format: cell-based; conditions: Homo sapiens, 72 h, mean ± SD of three independent experiments
Description: as §1, §2, §3, §4, §5, §6, §7

Structure (SMILES) | IC50 [1] [µM] | IC50 [2] [µM] | IC50 [3] [µM] | IC50 [4] [µM] | SI (BJ) HuT78 [4] | IC50 [5] [µM] | melting point [°C] | SI (BJ) CaCo-2 [3] | SI (MDCK) CaCo-2 ([3]; SI = IC50 MDCK1 / IC50 CaCo-2) | SI (MDCK) HuT78 [4]
O=C(COc1ccc(-c2nc3ccc(F)cc3s2)cc1F)c1ccccc1 [16b, 6-Fluoro-2-(3-fluoro-4-(2-oxo-2-phenylethoxy)phenyl)benzothiazole] | > 100 | 25.8 ± 9.4 | 89.3 ± 15.8 | 69.8 ± 15.5 | 1.43 | > 100 | 148 to 152 |  |  | 
COc1cc(-c2nc3ccc(F)cc3s2)ccc1OCC(=O)c1ccccc1 [16c, 6-Fluoro-2-(3-methoxy-4-(2-oxo-2-phenylethoxy)phenyl)benzothiazole] | > 100 | 6.8 ± 6.2 | > 100 | > 100 |  | > 100 | 178 to 181 |  |  | 
O=C(COc1ccc(-c2nc3ccccc3s2)cc1)c1ccccc1 [17a, 2-(4-(2-Oxo-2-phenylethoxy)phenyl)benzothiazole] | > 100 | > 100 | > 100 | > 100 |  | > 100 | 150 to 155 |  |  | 
O=C(COc1ccc(-c2nc3ccccc3s2)cc1F)c1ccccc1 [17b, 2-(3-Fluoro-4-(2-oxo-2-phenylethoxy)phenyl)benzothiazole] | > 100 | > 100 | > 100 | > 100 |  | > 100 | 174 to 177 |  |  | 
COc1cc(-c2nc3ccccc3s2)ccc1OCC(=O)c1ccccc1 [17c, 2-(3-Methoxy-4-(2-oxo-2-phenylethoxy)phenyl)benzothiazole] | > 100 | 78 ± 27.8 | > 100 | > 100 |  | > 100 | 184 to 186 |  |  | 
Fc1cc(-c2nc3ccc(Cl)cc3s2)ccc1OCc1ccccn1 [18b] | > 100 | 29.8 ± 17.7 | > 100 | > 100 |  | > 100 | 211 to 215 |  |  | 
COc1cc(-c2nc3ccc(Cl)cc3s2)ccc1OCc1ccccn1 [18c] | > 100 | 41.4 ± 8.1 | > 100 | 55.6 ± 34.6 |  | 67.3 ± 7.8 | 173 to 176 |  |  | 
Fc1ccc2nc(-c3ccc(OCc4ccccn4)cc3)sc2c1 [19a] | > 100 | 1.1 ± 0.2 | > 100 | > 100 |  | > 100 | 165 to 170 |  |  | 
Fc1ccc2nc(-c3ccc(OCc4ccccn4)c(F)c3)sc2c1 [19b] | > 100 | 16.3 ± 11.5 | > 100 | > 100 |  | > 100 | 190 to 195 |  |  | 
COc1cc(-c2nc3ccc(F)cc3s2)ccc1OCc1ccccn1 [19c] | > 100 | 1.1 ± 0.2 | > 100 | > 100 |  | > 100 | 152 to 156 |  |  | 
c1ccc(COc2ccc(-c3nc4ccccc4s3)cc2)nc1 [20a, 2-(4-(Pyridin-2-ylmethoxy)phenyl)benzothiazole] | > 100 | 65.7 ± 11.8 | > 100 | > 100 |  | > 100 | 132 to 136 |  |  | 
Fc1cc(-c2nc3ccccc3s2)ccc1OCc1ccccn1 [20b] | > 100 | 94.2 ± 18.4 | 28.7 ± 16.7 | > 100 |  | > 100 | 136 to 142 | 3.48 | 3.28 | 
COc1cc(-c2nc3ccccc3s2)ccc1OCc1ccccn1 [20c] | > 100 | 85.9 ± 15.7 | 89.2 ± 16.8 | 64.7 ± 11.3 | 1.55 | > 100 | 110 to 115 | 1.12 |  | 1.33
Clc1ccc2nc(-c3ccc(OCc4c[nH]nn4)cc3)sc2c1 [21a, 6-Chloro-2-(4-((1H-1,2,3-triazol-4-yl)methoxy)phenyl)benzothiazole] | > 100 | 12.6 ± 4.8 | > 100 | 6.8 ± 6.2 | 14.7 | > 100 | 220 to 223 |  |  | 1.85
Fc1cc(-c2nc3ccc(Cl)cc3s2)ccc1OCc1c[nH]nn1 [21b, 6-Chloro-2-(3-fluoro-4-((1H-1,2,3-triazol-4-yl)methoxy)phenyl)benzothiazole] | 84.1 ± 24.7 | 10.1 ± 4.5 | > 100 | 3.6 ± 3.1 | 23.36 | > 100 | 205 to 209 |  |  | 2.8
COc1cc(-c2nc3ccc(Cl)cc3s2)ccc1OCc1c[nH]nn1 [21c, 6-Chloro-2-(3-methoxy-4-((1H-1,2,3-triazol-4-yl)methoxy)phenyl)benzothiazole] | > 100 | 43.2 ± 12.4 | > 100 | 24.3 ± 6.5 | 4.11 | > 100 | 183 to 188 |  |  | 1.78
Fc1ccc2nc(-c3ccc(OCc4c[nH]nn4)cc3)sc2c1 [22a, 6-Fluoro-2-(4-((1H-1,2,3-triazol-4-yl)methoxy)phenyl)benzothiazole] | > 100 | 1.1 ± 0.2 | 73.5 ± 4.5 | 14.9 ± 10.8 | 6.71 | 54.5 ± 29.4 | 212 to 215 |  |  | 
Fc1ccc2nc(-c3ccc(OCc4c[nH]nn4)c(F)c3)sc2c1 [22b, 6-Fluoro-2-(3-fluoro-4-((1H-1,2,3-triazol-4-yl)methoxy)phenyl)benzothiazole] | 86.4 ± 20.9 | 1 | > 100 | 9.1 ± 2.8 | 9.49 | 50.6 ± 19.3 | 177 to 180 |  |  | 
COc1cc(-c2nc3ccc(F)cc3s2)ccc1OCc1c[nH]nn1 [22c, 6-Fluoro-2-(3-methoxy-4-((1H-1,2,3-triazol-4-yl)methoxy)phenyl)benzothiazole] | > 100 | 0.7 ± 0.3 | > 100 | 38.1 ± 23.4 | 2.62 | > 100 | 196 to 199 |  |  | 
c1ccc2sc(-c3ccc(OCc4c[nH]nn4)cc3)nc2c1 [23a, 2-(4-((1H-1,2,3-triazol-4-yl)methoxy)phenyl)benzothiazole] | > 100 | 40.7 ± 5.7 | 95.6 ± 6.6 | 19 ± 4 | 5.26 | 52.4 ± 18.4 | 204 to 207 |  |  | 2.14
